According to patent publication US10100011B2, “Pentadienoyl piperidine derivative and use thereof” (Industry-Academic Cooperation Foundation, Yonsei University, priority 2014, dated 2018):

How the values were obtained:
3T3L1 cells = test: Adipocyte differentiation inhibition in preadipocytes (Oil-red O staining); format: cell-based, mouse; conditions: for adipocyte differentiation inhibition effect (in words): different concentrations
Protocol: Preadipocytes, 3T3L1 cells, were aliquoted into a 12-well plate and cultured in a DMEM medium containing 1% penicillin-streptomycin, 1% nonessential amino acid, and 10% fetal bovine serum (FBS) in a 5% CO2 incubator at 37° C. until confluence. The 3T3L1 cells grown to confluence were cultured for two days in a medium containing 0.5 mM isobutyl-methylxanthine, 1 μM dexamethasone (MDI), and 1 μg/ml insulin, thereby being differentiated into adipocytes. Subsequently, the differentiated adipocytes were further cultured for two days in a DMEM medium including 1 μg/ml insulin, thereby being differentiated into mature adipocytes. Subsequently, the differentiated mature adipocytes were further cultured for 10 days while replacing a used DMEM medium with a new DMEM medium every two days. As a result, completely differentiated adipocytes were formed.
3T3-L1 cells were treated with each of a total of four novel compound types at different concentrations every two days from the first day of cell differentiation induction by addition of DMI. Each of the derivative compounds was dissolved in DMSO and then used. A negative control group including only DMSO was included in this experiment. Cell culture was carried out for 14 days. When differentiation was completed, a medium was removed and lipid droplets contained in differentiated adipocytes were stained. To stain the lipid droplets, cells were washed with phosphate buffered saline (PBS) twice and then fixed with 10% buffered neutral formalin for one hour, followed by washing with PBS once. Subsequently, 1 ml of Oil-red-O dye for staining lipid droplets red was fed into a 12-well plate and lipid droplets were stained for one hour, followed by washing with distilled water twice. To measure the concentration of neutral fat contained in the differentiated 3T3L1 cells, the stained lipid droplets were dissolved in 1 ml of isobutanol, followed by measuring an O.D value at 600 nm.

C57BL/6J mice = test: Body weight and visceral fat weight in mice fed high-fat diet; format: in vivo, mouse; conditions: high-fat diet with about 0.05% compound (sibutramine about 0.01%), 10 weeks
Protocol: An obesity induction diet used in this experiment was a high-fat diet (HFD: 40% fat calories, 17 g of lard+3% corn oil/100 g diet), and the compositions of diets including the LJ-2501, LJ-2488, LJ-2495, LJ-2496 compounds were identical to that of HFD, except that each of the compounds was included in an amount of about 0.05% (Table 2). As a control drug, an anti-obesity drug, sibutramine (Sibut), was added in an amount of about 0.01% to the high-fat diet and a normal diet group (Chow) was fed with commercial rodent chow.
5-week old 40 male C57BL/6J mice (Orient Bio., Korea) were fed with hard feed and accommodated in a laboratory environment for one week. Subsequently, in accordance with a randomized block method, the mice were randomly grouped into a normal diet group, a high-fat diet control group, two experimental substance groups, and […] and raised for a total of 10 weeks (n=8/group). Diets were supplied with water between 10 am and 11 am every day. An intake amount was measured every day and the body weights of the mice were measured every week. To prevent temporal weight change due to feed intake, feedboxes were removed and, after two hours, the body weights were measured. The experimental animals were fasted for 12 hours or more and then anesthetized with diethyl ether, followed by collecting blood, liver, and visceral adipose tissues (epididymal fat, perirenal fat, mesenteric fat, and retroperitoneal fat). The collected samples were washed with 0.1 M phosphate buffered saline (pH 7.4) and then weighed. Blood samples collected from abdominal aortas were centrifuged at 1000×g for 15 minutes, thereby separating plasma.

## CCOc1ccc(/C=C/C=C/C(=O)N2CCCCC2)cc1 [LJ-2495, (2E,4E)-5-(4-ethoxyphenyl)-1-(piperine-1-yl)penta-2,4-diene-1-one]
3T3L1 cells
  adipocyte differentiation inhibition effect (in words): did not exhibit an adipocyte differentiation inhibition effect

## CC(C)CC(N(C)C)C1(c2ccc(Cl)cc2)CCC1 (stereo not shown) [sibutramine, reference compound]
C57BL/6J mice
  visceral fat reduction effect, change vs HFD (given with minus sign): −22%
  weight reduction effect, change in cumulative weight gain vs HFD (given with minus sign): −33%

## CCCOc1ccc(/C=C/C=C/C(=O)N2CCCCC2)cc1 [LJ-2496, (2E,4E)-1-(piperine-1-yl)-5-(4-propoxyphenyl)penta-2,4-diene-1-one]
3T3L1 cells
  adipocyte differentiation inhibition effect (in words): did not exhibit an adipocyte differentiation inhibition effect

## COc1ccc(OC)c(/C=C/C=C/C(=O)N2CCCCC2)c1 [LJ-2488, (2E,4E)-5-(2,5-dimethoxyphenyl)-1-(piperine-1-yl)penta-2,4-diene-1-one]
3T3L1 cells; Mus musculus, 3T3-L1, treated every two days during 14 days differentiation, Oil-red O O.D. 600 nm, read-out: preadipocyte differentiation inhibition effect, EC50 value
  EC50: 2.8 mM
C57BL/6J mice
  visceral fat reduction effect, change vs HFD (given with minus sign): −6%
  weight reduction effect, change in cumulative weight gain vs HFD (given with minus sign): −14%
